Laboratory results as given in patent US11166922B2, “Method for treating hyperhidrosis with dexmecamylamine” (Atacama Therapeutics, Inc., priority 2014, dated 2021).
Values belong to the compound of their own block, whether it stands above or below them.

What was measured:
[1] = human, in vivo, po; cited from earlier work
[2] = pre-clinical; see U.S. Pat. No. 7,101,916; cited from earlier work
[3] = tested on: subjects with overactive bladder; format: in vivo, human
Description: Dexmecamylamine is a use-dependent potent inhibitor of the α3 nicotinic receptor subtype (e.g., α3β2 and α3β4). Such receptors are expressed in the urothelium and regulate bladder smooth muscle contraction. (Beckel et al., Expression of functional nicotinic acetylcholine receptors in rat urinary bladder epithelial cells, Am. J. Physiol. Renal Physiol. 290:F103-110, 2006). A clinical study was performed to evaluate the safety, tolerability, and efficacy of dexmecamylamine (TC-5214) for the treatment of Overactive Bladder (OAB). The study included a three- or five-week screening period, followed by a 12-week treatment period during which patients received either one of three doses of dexmecamylamine or placebo twice daily, randomized in a ratio of 2:1:1:1 (placebo, low dose, mid dose, high dose), with a two-week follow-up period. A total of 768 subjects with overactive bladder were randomized into the double-blind treatment period of the study. On Jul. 28, 2014, Targacept announced top-line results from the Phase 2b clinical trial of TC-5214 as a treatment for overactive bladder (OAB). […] See also, PCT Application No. […], which published as WO 2013/142162 A1.
As noted hereinabove, a clinical study was performed to evaluate the safety, tolerability, and efficacy of dexmecamylamine (TC-5214) for the treatment of Overactive Bladder (OAB). The study included a three- or five-week screening period, followed by a 12-week treatment period during which patients received either one of three doses of dexmecamylamine or placebo twice daily, randomized in a ratio of 2:1:1:1 (placebo, low dose, mid dose, high dose), with a two-week follow-up period. A total of 768 subjects with overactive bladder were randomized into the double-blind treatment period of the study. […] See also, PCT Application No. PCT/US2013/030640, which published as WO 2013/142162 A1.

[4] = Excretion of dexmecamylamine in urine; conditions: in vivo
Excerpt: The exposure differential results in the ability of dexmecamylamine to target local nicotinic receptors in the urothelium that affect bladder contraction frequency while limiting systemic side effects. Consequently, the potential for dexmecamylamine to treat OAB through its action on nAChRs in the bladder urothelium warrants further investigation.

[5] = tested on: Major Depressive Disorder (MDD) subjects; format: in vivo, human
Description: More recently, dexmecamylamine was evaluated as adjunctive therapy in the treatment of major depressive disorder (MDD) in a large international Phase 3 depression program. […] More than 2400 subjects have received dexmecamylamine in double-blind or open-label studies.
No safety studies using dexmecamylamine have been performed in OAB. Phase 2 and Phase 3 clinical studies using dexmecamylamine in Major Depressive Disorder (MDD) have been conducted and completed. […] Briefly, in the fixed dose Phase 3 studies in MDD, at doses of 2 mg BID (the maximum doses to be studied in the OAB study), the most frequent treatment emergent adverse events that were reported more than 2% more commonly in the dexmecamylamine group compared to placebo group were: constipation (15.2% dexmecamylamine vs. 3.8% placebo): and dry mouth (7.0% dexmecamylamine vs. 1.3% placebo).

sympathetic activities = experiment: Dose-responses for inhibition of sympathetic activities at low and high firing frequency (FIG. 2); conditions: 1 Hz versus 10 Hz firing frequency
Description: This is believed due, in part, to the fact that TC-5214 potency will increase with frequency due to its slow off-rate kinetics. See FIG. 2, which illustrates a 10-fold shift to the left with increasing frequency. The effective dose range, therefore, is believed to be between 0.1 and 1 mg; with a top dose at 2 mg once per day, since sympathetic activity decreases at night in primary hyperhidrosis. […] The potency of TC-5214 shifts to the left (red/triangle curve) thereby reducing sweating due to overactive sympathetic but remain too low to induce inhibition of the parasympathetic and associated side effects, including urinary retention and constipation.

Compound: CNC1(C)C2CCC(C2)C1(C)C.Cl (racemic) [mecamylamine, N,2,3,3-tetramethylbicyclo[2.2.1]heptan-2-amine hydrochloride]
absorption from the gastrointestinal tract [1]: nearly complete absorption

placebo corrected rate of constipation ([3]; human, in vivo, 12 weeks): 15.1%
rate of urinary tract infection (placebo corrected) ([3]; human, in vivo, 12 weeks): 5.9%
Compound: CNC1(C)[C@H]2CCC(C2)C1(C)C (stereo in doubt) [TC-5214, (S)-N,2,3,3-tetramethylnorbornan-2-amine]
safety profile versus mecamylamine and its R-isomer [2]: superior safety profile
micturition frequency per 24 hours (co-primary endpoint) ([3]; high dose, twice daily, after 12 weeks of treatment, p=0.033): statistically significant reduction
episodes of urinary incontinence per 24 hours (co-primary endpoint) ([3]; high dose, twice daily, after 12 weeks of treatment, p=0.379): improvement that did not reach statistical significance
safety and tolerability ([3]; human, in vivo): generally safe and well tolerated
excretion in the urine [4]: excreted almost entirely unchanged in the urine
efficacy in the treatment of depression ([5]; adjunctive therapy, Phase 3 depression program): failed to demonstrate efficacy
safety and tolerability ([5]; human, in vivo): generally safe and well-tolerated
vital signs, blood or urine laboratory measurements, ECG conduction intervals, suicidality ([5]; human, in vivo): no noteworthy differences
shift of potency (dose-response to the left) with increasing frequency (sympathetic activities): 10 fold
